Laboratory results as given in patent US5087562A, “Humoral hypercalcemic factor antagonists with modification at position 13 . . ” (Merck & Co., Inc., priority 1990, dated 1992).

Legend:
[1] = molecular target: T1, Bovine renal cortical plasma membranes (HCF cell surface receptor) (Bos taurus, UniProt Q1LZF7); assay: HCF binding assay (radioligand receptor assay); settings: radioligand [Nle^8,18,(^125 I)-Tyr^34]bPTH(1-34)NH2, 30 min at 21° C
T1 construct: from tissue; host or cells: bovine renal cortex plasma membranes
T1 sequence (Q1LZF7 29-589): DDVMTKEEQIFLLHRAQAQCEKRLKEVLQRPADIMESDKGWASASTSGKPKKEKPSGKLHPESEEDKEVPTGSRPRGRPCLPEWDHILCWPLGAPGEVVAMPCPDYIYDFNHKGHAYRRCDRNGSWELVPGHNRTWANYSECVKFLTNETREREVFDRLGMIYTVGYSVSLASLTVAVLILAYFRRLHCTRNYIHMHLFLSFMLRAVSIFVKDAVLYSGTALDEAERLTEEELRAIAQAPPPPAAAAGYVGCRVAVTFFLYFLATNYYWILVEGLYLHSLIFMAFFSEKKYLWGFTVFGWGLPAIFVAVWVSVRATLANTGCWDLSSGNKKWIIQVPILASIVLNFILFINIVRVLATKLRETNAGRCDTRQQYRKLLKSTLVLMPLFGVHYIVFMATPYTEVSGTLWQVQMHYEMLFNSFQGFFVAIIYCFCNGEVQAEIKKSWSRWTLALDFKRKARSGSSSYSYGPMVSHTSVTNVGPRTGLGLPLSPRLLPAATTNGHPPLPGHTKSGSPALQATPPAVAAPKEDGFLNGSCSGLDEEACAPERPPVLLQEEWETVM
Protocol: HCF analogues were analysed in a new receptor assay which modified the assay reported in Rosenblatt et al., Endocrin 107: 545-550 (1980). The binding assay used [Nle^8,18, (^125 I)-Tyr^34 ]bPTH (1-34)NH2 which was purified by HPLC (Novapak C18, 32-35% CH3 CN in 0.1% TFA) and was stored as aliquots in 25 mM TrisHCl/1%BSAat -70° C. Bovine renal cortical plasma membranes were incubated with radioligand (25,000 cpm) in a Tris-containing buffer (250 μl) for 30 min. at 21° C. Once equilibrium was reached, bound and free radioligand were separated by centrifugation.
High specific binding (85%) to bovine renal cortical membranes was obtained consistently.
The assay reported on page 546 in Rosenblatt, et al. is as follows:
Radioligand binding assay: A PTH-binding assay based on the sulfur-free ^125 I-labeled hormone analog, [Nle-8,Nle-18,Tyr-34]-bPTH-(1-34)amide,was employed (4). The assay is specific and saturable with regard to PTH binding, and binding avidity in this system correlates closely with biological acitibity for multiple PTH agonist fragments and analogs. […] Inhibition of specific binding of radioligand was assessed for each fragment over several log orders of magnitude. […] In each assay, inhibition of radioligand binding was determined in triplicate at each concentration of peptide used.

[2] = tested on: bovine renal membrane adenylate cyclase; settings: bovine renal cortical membranes; quoted from Horiuchi et al.; cited from earlier work

Kb [1] [nM] | Molecule | potency in adenylate cyclase assay (stimulation) [2]
20 ± 3 | CC[C@H](C)[C@H](NC(=O)[C@H](CC(C)C)NC(=O)[C@H](Cc1c[nH]cn1)NC(=O)[C@H](Cc1c[nH]cn1)NC(=O)[C@H](CC(C)C)NC(=O)[C@H](Cc1ccccc1)NC(=O)[C@H](Cc1ccccc1)NC(=O)[C@H](CCCNC(=N)N)NC(=O)[C@H](CCCNC(=N)N)NC(=O)[C@H](CCCNC(=N)N)NC(=O)[C@H](CC(C)C)NC(=O)[C@H](CC(=O)O)NC(=O)[C@H](CCC(N)=O)NC(=O)[C@@H](NC(=O)[C@H](CO)NC(=O)[C@H](CCCCNC(=O)CCc1ccccc1)NC(=O)[C@@H](Cc1c[nH]c2ccccc12)NC(=O)[C@H](CC(C)C)NC(=O)[C@H](CC(=O)O)NC(=O)[C@H](Cc1c[nH]cn1)NC(=O)CCC(C)C)[C@@H](C)CC)C(=O)N[C@@H](C)C(=O)N[C@@H](CCC(=O)O)C(=O)N[C@H](C(=O)N[C@@H](Cc1c[nH]cn1)C(=O)N[C@H](C(=O)N[C@@H](C)C(N)=O)[C@@H](C)O)[C@@H](C)CC [desamino [Leu^11, D-Trp^12, Lys^13 (N^ε --CO(CH2)2 -Phenyl)]hHCF(8-34)NH2] | 
 | hHCF-(1-34)NH2 | potency comparable to PTH
